Laboratory results taken from the NIST ThermoML archive (doi:10.1021/je900648p).
Numbers after ± are expanded uncertainties.

Assays:
[1] = molar heat capacity at constant pressure; conditions: 101.33 kPa, Liquid, Small sample (50 mg) DSC
[2] = 101.33 kPa, Liquid, Hot wire method

CCCCn1cc[n+](C)c1.F[P-](F)(F)(F)(F)F [1-butyl-3-methylimidazolium hexafluorophosphate]
Conditions | molar heat capacity at constant pressure [J/K/mol] | thermal conductivity [W/m/K]
[1], 308.16 K | 410.64 ± 8.2 | –
[1], 313.16 K | 413.48 ± 8.3 | –
[1], 318.16 K | 417.74 ± 8.3 | –
[1], 323.16 K | 422.01 ± 8.4 | –
[1], 328.22 K | 423.43 ± 8.5 | –
[1], 333.22 K | 426.27 ± 8.5 | –
[1], 338.19 K | 429.11 ± 8.6 | –
[1], 343.18 K | 433.37 ± 8.7 | –
[1], 348.25 K | 436.22 ± 8.7 | –
[1], 353.18 K | 439.06 ± 8.8 | –
[1], 358.25 K | 441.9 ± 8.8 | –
[1], 363.18 K | 443.32 ± 8.9 | –
[1], 368.17 K | 444.74 ± 8.9 | –
[1], 373.21 K | 447.58 ± 8.9 | –
[1], 378.2 K | 450.43 ± 9 | –
[1], 383.17 K | 454.69 ± 9.1 | –
[1], 388.2 K | 457.53 ± 9.2 | –
[1], 393.17 K | 460.37 ± 9.2 | –
[1], 398.2 K | 463.21 ± 9.3 | –
[1], 403.2 K | 468.9 ± 9.4 | –
[1], 408.16 K | 470.32 ± 9.4 | –
[1], 413.19 K | 471.74 ± 9.4 | –
[1], 418.19 K | 473.16 ± 9.5 | –
[1], 423.22 K | 474.58 ± 9.5 | –
[2], 293 K | – | 0.145 ± 0.01
[2], 303 K | – | 0.145 ± 0.01
[2], 313 K | – | 0.145 ± 0.01
[2], 323 K | – | 0.144 ± 0.01
[2], 333 K | – | 0.143 ± 0.01
[2], 343 K | – | 0.143 ± 0.01
[2], 353 K | – | 0.143 ± 0.01

CCCCCCn1cc[n+](C)c1.F[B-](F)(F)F [1-hexyl-3-methylimidazolium tetrafluoroborate]
[2]
Conditions | thermal conductivity [W/m/K]
293 K | 0.158 ± 0.01
303 K | 0.157 ± 0.01
313 K | 0.156 ± 0.01
323 K | 0.155 ± 0.01
333 K | 0.153 ± 0.01
343 K | 0.152 ± 0.01
353 K | 0.151 ± 0.01

CCCC[N+]1(C)CCCC1.O=S(=O)([N-]S(=O)(=O)C(F)(F)F)C(F)(F)F
[2]
Conditions | thermal conductivity [W/m/K]
293 K | 0.118 ± 0.01
303 K | 0.118 ± 0.01
313 K | 0.118 ± 0.01
323 K | 0.117 ± 0.01
333 K | 0.117 ± 0.01

CCCCn1cc[n+](C)c1.F[B-](F)(F)F [1-butyl-3-methylimidazolium tetrafluoroborate]
[1]
Conditions | molar heat capacity at constant pressure [J/K/mol]
308.16 K | 367.26 ± 7.3
313.16 K | 367.64 ± 7.3
318.16 K | 370.39 ± 7.4
323.16 K | 371.89 ± 7.4
328.22 K | 373.73 ± 7.5
333.22 K | 375.92 ± 7.5
338.19 K | 377.15 ± 7.5
343.18 K | 380.16 ± 7.6
348.25 K | 382.69 ± 7.7
353.18 K | 384.8 ± 7.7
358.25 K | 386.99 ± 7.7
363.18 K | 389.18 ± 7.8
368.17 K | 390 ± 7.8
373.21 K | 390.04 ± 7.8
378.2 K | 392.18 ± 7.8
383.17 K | 393.64 ± 7.9
388.2 K | 395.28 ± 7.9
393.17 K | 396.49 ± 7.9
398.2 K | 397.93 ± 8
403.2 K | 400.74 ± 8
408.16 K | 403.88 ± 8.1
413.19 K | 403.49 ± 8.1
418.19 K | 404.98 ± 8.1
423.22 K | 406.62 ± 8.1
